Measurements reported in patent US12532889B2, “Herbicidal compositions comprising glufosinate” (BASF SE, priority 2023, dated 2026).

System: EPHHI (Euphorbia hirta)
Assay: Post-emergence application in field trials (Example A)
Assay type: in vivo
Settings: Table 1.2, EPHHI height 25 cm, 14 DAT, water volume 100 l/ha, 0.5% v/v MSO
Protocol: In the examples below, using the method of S. R. Colby (1967) “Calculating synergistic and antagonistic responses of herbicide combinations”, Weeds 15, p. 22ff., the value E, which is expected if the activity of the individual active compounds is only additive, was calculated:
[formula] • where • X=percent activity using active herbicide A at an application rate a; • Y=percent activity using active herbicide B (e.g. glufosinate) at an application rate b; • E=expected activity (in %) by A+B at application rates a+b.
If the value found experimentally is higher than the value E calculated according to Colby, a synergistic effect is present.
On field test sites, natural weed infestation or seeded weeds were treated post-emergence of the weeds.
In the field trials, the weeds were treated as indicated below.
In the following experiments, the herbicidal activity for the individual herbicidal compositions (solo and mixture applications) was assessed at the indicated days after treatment (DAT). The assessments for the damage on undesired weeds caused by the composition was carried out using a scale from 0 to 100%, compared to the untreated control plants. Here, 0 means no damage and 100 means complete destruction of the plants.
Post-emergence application of Herbicide A-1 (A-1) and glufosinate ammonium (B-2) in Field Trials:
Herbicide A-1 (50 g/l), glufosinate ammonium (200 g/l) and optional herbicide C were, together with addition of 0.5% v/v MSO (methylated seed oil) as adjuvant, formulated in water as distribution medium as indicated and sprayed with commercial flat fan nozzles.

Compound	% herbicidal activity (B-2 solo 400 g ai/ha)	% herbicidal activity (A-1 solo 25 g ai/ha)
CP(=O)(O)CCC(N)C(=O)O (centres unmarked) [B-2, glufosinate-ammonium]	20%	
CCOC(=O)COc1ccccc1Oc1nc(-n2c(=O)cc(C(F)(F)F)n(C)c2=O)c(F)cc1Cl [A-1, ethyl 2-[2-[[3-chloro-5-fluoro-6-[3-methyl-2,6-dioxo-4-(trifluoromethyl)pyrimidin-1-yl]-2-pyridyl]oxy]phenoxy]acetate]		50%
